In ChEMBL document CHEMBL1131922, “Synthesis and biological evaluation of cryptophycin analogs with substitution at C-6 (fragment C region)” (Bioorg Med Chem Lett, 1999):

System: CCRF-CEM
Assay: In vitro cytotoxicity against human leukemia CCRF-CEM cell line
Assay type: functional, cell-based

| SMILES | IC50 |
| --- | --- |
| COc1ccc(C[C@H]2NC(=O)/C=C/C[C@@H]([C@H](C)[C@H]3O[C@@H]3c3ccccc3)OC(=O)[C@H](CC(C)C)OC(=O)C3(CCCCC3)CNC2=O)cc1Cl | 63 nM |
| CCC1(CC)CNC(=O)[C@@H](Cc2ccc(OC)c(Cl)c2)NC(=O)/C=C/C[C@@H]([C@H](C)[C@@H](O)[C@@H](Cl)c2ccccc2)OC(=O)[C@H](CC(C)C)OC1=O | 1.6 nM |
| CCC1(CC)CNC(=O)[C@@H](Cc2ccc(OC)c(Cl)c2)NC(=O)/C=C/C[C@@H]([C@H](C)[C@H]2O[C@@H]2c2ccccc2)OC(=O)[C@H](CC(C)C)OC1=O | 1.1 nM |
| COc1ccc(C[C@H]2NC(=O)/C=C/C[C@@H]([C@H](C)[C@@H](O)[C@@H](Cl)c3ccccc3)OC(=O)[C@H](CC(C)C)OC(=O)C(C)(C)CNC2=O)cc1Cl | 0.05 nM |
| COc1ccc(C[C@H]2NC(=O)/C=C/C[C@@H]([C@H](C)[C@H]3O[C@@H]3c3ccccc3)OC(=O)[C@H](CC(C)C)OC(=O)C3(CCCC3)CNC2=O)cc1Cl | 0.3 nM |
| COc1ccc(C[C@H]2NC(=O)/C=C/C[C@@H]([C@H](C)[C@H]3O[C@@H]3c3ccccc3)OC(=O)[C@H](CC(C)C)OC(=O)C3(CC3)CNC2=O)cc1Cl | 0.16 nM |
| COc1ccc(C[C@H]2NC(=O)/C=C/C[C@@H]([C@H](C)[C@@H](O)[C@@H](Cl)c3ccccc3)OC(=O)[C@H](CC(C)C)OC(=O)C3(CCCC3)CNC2=O)cc1Cl | 0.4 nM |
| CCCC1(CCC)CNC(=O)[C@@H](Cc2ccc(OC)c(Cl)c2)NC(=O)/C=C/C[C@@H]([C@H](C)[C@@H](O)[C@@H](Cl)c2ccccc2)OC(=O)[C@H](CC(C)C)OC1=O | 8.7 nM |
| COc1ccc(C[C@H]2NC(=O)/C=C/C[C@@H]([C@H](C)[C@H]3O[C@@H]3c3ccccc3)OC(=O)[C@H](CC(C)C)OC(=O)C(C)(C)CNC2=O)cc1Cl [CRYPTOPHYCIN 52] | 0.02 nM |
| COc1ccc(C[C@H]2NC(=O)/C=C/C[C@@H]([C@H](C)[C@@H](O)[C@@H](Cl)c3ccccc3)OC(=O)[C@H](CC(C)C)NC(=O)C3(CC3)CNC2=O)cc1Cl | 0.01 nM |
| COc1ccc(C[C@H]2NC(=O)/C=C/C[C@@H]([C@H](C)[C@@H](O)[C@@H](Cl)c3ccccc3)OC(=O)[C@H](CC(C)C)NC(=O)C(C)(C)CNC2=O)cc1Cl | 0.016 nM |
| CCCC1(CCC)CNC(=O)[C@@H](Cc2ccc(OC)c(Cl)c2)NC(=O)/C=C/C[C@@H]([C@H](C)[C@H]2O[C@@H]2c2ccccc2)OC(=O)[C@H](CC(C)C)OC1=O | 8.5 nM |
| COc1ccc(C[C@H]2NC(=O)/C=C/C[C@@H]([C@H](C)[C@@H](O)[C@@H](Cl)c3ccccc3)OC(=O)[C@H](CC(C)C)OC(=O)C3(CCCCC3)CNC2=O)cc1Cl | 110 nM |
| COc1ccc(C[C@H]2NC(=O)/C=C/C[C@@H]([C@H](C)[C@@H](O)[C@@H](Cl)c3ccccc3)OC(=O)[C@H](CC(C)C)OC(=O)C3(CC3)CNC2=O)cc1Cl | 0.014 nM |
